According to EP0248231B1, “Pharmacologically active peptides” (Brantl, Victor, Dr. med., Dipl.-Chem., priority 1986, dated 1993):
Residues, ends and D or L forms follow the SMILES beside them.

Tested on: plexus myentericus/ Längsmuskel-Präparat des Meerschweinchenileums (GPI)
Test: Inhibition of electrically induced contraction of the myenteric plexus/longitudinal muscle preparation of guinea pig ileum (GPI)
Format: cell-based
Conditions: means of 4-6 determinations; standard deviation below 14 %; read-out: GPI: Konzentration, die notwendig ist, die elektrisch induzierte Kontraktion des Meerschweinchen-Darm-Präparates (GPI) um 50 % zu hemmen (IC₅₀-Wert)
Text: Die beiden Substanzen zeigen spezifische opiatartige Wirkungen am elektrisch stimulierten plexus myentericus/ Längsmuskel-Präparat des Meerschweinchenileums (GPI), Methode: Schulz und Goldstein, J. Pharmacol. Exptl. Ther. 183, 400, 1972. Die Ergebnisse sind in Tabelle 1 aufgeführt.
Tabelle 1. Opiatartige Wirkungen zweier erfindungsgemäßer Peptide; die Zahlen geben diejenige Konzentration (µM) an, die notwendig ist, die elektrisch induzierte Kontraktion des Meerschweinchen-Darm-Präparates (GPI) um 50 % zu hemmen (IC₅₀-Wert). Die Zahlen sind Mittelwerte aus 4-6 Bestimmungen; die Standardabweichung von den Mittelwerten ist kleiner als 14 %. Die Hemmungen des GPI sind mit dem spezifischen Opioid-Antagonisten Naloxon aufhebbar bzw. bei Vorbehandlung blockierbar. (Endkonzentration des Naloxons im Organbad 0,5 µM).

Compared with `Oc1ccc2c3c1O[C@H]1[C@@H](O)C=C[C@H]4[C@@H](C2)NCC[C@@]341` [Normorphin], `C[C@@H](O)[C@H](NC(=O)[C@H](Cc1c[nH]c2ccccc12)NC(=O)[C@@H]1CCCN1C(=O)[C@@H](N)Cc1ccc(O)cc1)C(=O)O` [Tyr-Pro-Trp-Thr, H-Tyr-Pro-Trp-Thr-OH] (H-YPWT-OH) is 450-fold higher in IC50: 0.1 µM for the first, 45.2 µM for the second.

With “H-YPWTQ-OH [Tyr-Pro-Trp-Thr-Gln, H-Tyr-Pro-Trp-Thr-Gln-OH]” the IC50 was 46.1 µM.
